From article PMC9400994, “3,4,5‐Trihydroxypiperidine Based Multivalent Glucocerebrosidase (GCase) Enhancers” (Chembiochem, 2022)

Legend:
GCase [1] = biological target: T1, GCase (Homo sapiens, UniProt P04062); test: Inhibitory activity towards human GCase in leukocyte extracts from healthy donors; format: biochemical; design: screened towards GCase from leukocytes isolated from healthy donors (controls); Isolated leukocytes were disrupted by sonication; from tissue; host or cells: pooled human leukocytes from healthy donors, sonicated homogenate; details: for IC50: GCase from leukocytes of healthy donors, 4-methylumbelliferyl-β-D-glucoside 3.33 mM; for rp/n (multivalent effect): relative potency divided by number of binding units n; for rp (relative potency): with respect to monovalent compound 18; for inhibition at 1000 µM: human leukocyte extracts, inhibitor 1 mM, 37 °C, read-out: GCase inhibition (percentage inhibition)
T1 sequence (P04062 40-536): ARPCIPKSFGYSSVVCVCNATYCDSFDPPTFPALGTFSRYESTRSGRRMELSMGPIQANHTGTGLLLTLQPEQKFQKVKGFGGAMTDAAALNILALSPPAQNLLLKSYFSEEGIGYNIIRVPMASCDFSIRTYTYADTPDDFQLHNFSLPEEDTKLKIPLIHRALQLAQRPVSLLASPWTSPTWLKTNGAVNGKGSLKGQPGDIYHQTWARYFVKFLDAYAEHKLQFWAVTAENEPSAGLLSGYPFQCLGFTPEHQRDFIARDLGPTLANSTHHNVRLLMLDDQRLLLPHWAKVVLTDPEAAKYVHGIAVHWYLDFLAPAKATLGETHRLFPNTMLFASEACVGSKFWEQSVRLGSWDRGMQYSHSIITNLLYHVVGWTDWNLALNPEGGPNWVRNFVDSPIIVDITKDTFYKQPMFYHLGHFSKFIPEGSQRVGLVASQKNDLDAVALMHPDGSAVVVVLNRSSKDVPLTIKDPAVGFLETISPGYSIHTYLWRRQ
Procedure: The compounds were screened in extracts from a pool of human leucocytes isolated from healthy donors (1 mM inhibitor concentration, 37 °C and optimal pH conditions, see Experimental Section). […] Isolated leukocytes were disrupted by sonication, and a micro BCA protein assay kit (Sigma‐Aldrich) was used to determine the total protein amount for the enzymatic assay, according to the manufacturer instructions. Enzyme activity was measured in a flat‐bottomed 96‐well plate. […] Percentage GCase inhibition is given with respect to the control (without iminosugar). Data are mean ± SD (n=3).
Data are mean ± SD (n=3). Data obtained were fitted using the Origin Microcal program (see the Supporting Information file for further details). […]
leukocytes isolated from healthy donors (controls). Isolated leukocytes were disrupted by sonication, and a micro BCA protein assay kit (Sigma –Aldrich) was used to determine the total protein amount for the enzymatic assay, according to the manufactu rer instructions. Enzyme activity was measured in a flat - […]
GCase inhibition is given with respect to the control (without iminosugar). Data are mean ± SD (n=3).
The corresponding calculated
IC50 determination: The IC50 values of inhibitors against GCase were determined by measuring the initial […]
Data are mean ± SD (n=3). Data obtained were fitted to the following equation using the Origin Microcal program. where Vi/Vo, represent the ratio between the activity measured in the presence of the inhibitor (Vi) and the activity of the control without the inhibitor (V0), “x” the inhibitor concentration, Max and Min, the maximal and minimal enzymatic activity observed, respectively.

GCase [2] = biological target: T1, GCase; design: method as in earlier work; details: 100 μM; ref 20a; cited from earlier work

OC1[C@H](O)CN(CCCCCCCCCn2cc(COC[C@@H](OCc3cn(CCCCCCCCCN4C[C@@H](O)C(O)[C@H](O)C4)nn3)[C@@H](OCc3cn(CCCCCCCCCN4C[C@@H](O)C(O)[C@H](O)C4)nn3)[C@H](OCc3cn(CCCCCCCCCN4C[C@@H](O)C(O)[C@H](O)C4)nn3)[C@@H](COCc3cn(CCCCCCCCCN4C[C@@H](O)C(O)[C@H](O)C4)nn3)OCc3cn(CCCCCCCCCN4C[C@@H](O)C(O)[C@H](O)C4)nn3)nn2)C[C@H]1O [Compound 14]
IC50 (GCase [1]): 6 ± 2 µM
rp/n (multivalent effect) (GCase [1]): 14
rp (relative potency) (GCase [1]): 83

NC(COCc1cn(CCCCCCCCCN2C[C@@H](O)C(O)[C@H](O)C2)nn1)(COCc1cn(CCCCCCCCCN2C[C@@H](O)C(O)[C@H](O)C2)nn1)COCc1cn(CCCCCCCCCN2C[C@@H](O)C(O)[C@H](O)C2)nn1 [Compound 11]
IC50 (GCase [1]): 27 ± 3 µM
inhibition at 1000 µM (GCase [1]): 100%
rp/n (multivalent effect) (GCase [1]): 6
rp (relative potency) (GCase [1]): 19

CCCCCCCCN1CC(O)C(O)C(O)C1 (stereo not shown)
Increase of enzyme activity (GCase [2]): 1.25 fold

O=C(CCCCC(=O)NC(COCc1cn(CCCCCCCCCN2C[C@@H](O)C(O)[C@H](O)C2)nn1)(COCc1cn(CCCCCCCCCN2C[C@@H](O)C(O)[C@H](O)C2)nn1)COCc1cn(CCCCCCCCCN2C[C@@H](O)C(O)[C@H](O)C2)nn1)NC(COCc1cn(CCCCCCCCCN2C[C@@H](O)C(O)[C@H](O)C2)nn1)(COCc1cn(CCCCCCCCCN2C[C@@H](O)C(O)[C@H](O)C2)nn1)COCc1cn(CCCCCCCCCN2C[C@@H](O)C(O)[C@H](O)C2)nn1 [Compound 15]
IC50 (GCase [1]): 11 ± 3 µM
rp/n (multivalent effect) (GCase [1]): 8
rp (relative potency) (GCase [1]): 45

OC1[C@H](O)CN(CCCCCCCCCn2cc(COCC(COCc3cn(CCCCCCCCCN4C[C@@H](O)C(O)[C@H](O)C4)nn3)(COCc3cn(CCCCCCCCCN4C[C@@H](O)C(O)[C@H](O)C4)nn3)COCc3cn(CCCCCCCCCN4C[C@@H](O)C(O)[C@H](O)C4)nn3)nn2)C[C@H]1O [Compound 13]
IC50 (GCase [1]): 9 ± 4 µM
rp/n (multivalent effect) (GCase [1]): 14
rp (relative potency) (GCase [1]): 56

OCc1cn(CCCCCCCCCN2C[C@@H](O)C(O)[C@H](O)C2)nn1 [Compound 18]
IC50 (GCase [1]): 500 ± 50 µM
inhibition at 1000 µM (GCase [1]): ~70%
